According to PMC5353710, “Structural insights into the γ-lactamase activity and substrate enantioselectivity of an isochorismatase-like hydrolase from Microbacterium hydrocarbonoxydans” (Scientific Reports, 2017):

Assays:
MhIHL (Mh33H4-5540) [1] = target: T1, MhIHL (Mh33H4-5540) (Microbacterium hydrocarbonoxydans, UniProt A0A0K0XHU0, C111A); conditions: inactive variant; crystal soaked in 250 mM ligand for 1.5 h; active site
MhIHL (Mh33H4-5540) [2] = target: T1, MhIHL (Mh33H4-5540); conditions: inactive variant; crystal soaked in 500 mM ligand for 10 min; active site

| Structure (SMILES) | X-ray crystal structure, 1.99 Å (MhIHL (Mh33H4-5540) [1]) | X-ray crystal structure, 1.79 Å (MhIHL (Mh33H4-5540) [2]) |
| --- | --- | --- |
| O=C1N[C@H]2C=C[C@@H]1C2 [(−)-γ-lactam, 2-Azabicyclo[2.2.1]hept-5-en-3-one] | The final crystals of MhIHL–(−)-γ-lactam complex were obtained by soaking the crystal |  |
| O=C1N[C@@H]2C=C[C@H]1C2 [(+)-γ-lactam, 2-Azabicyclo[2.2.1]hept-5-en-3-one] |  | The final MhIHL–(+)-γ-lactam complex crystals were obtained by soaking the crystal |
